The text below walks through data of patent publication US8551967B2, “Formulations with anti-tumour action” (Gentium SpA, priority 2003, dated 2013).

One data set relates to mammary carcinoma 13762. As to the kind of experiment: Tumour growth delay in rats carrying mammary carcinoma 13762. The settings on record: for Days to reach 500 mm^3 / TGD: chemotherapy alone, ip days 8 & 18; for Days to reach 500 mm^3: tumour implanted day 0; for TGD: versus controls. The procedure: The hepatotoxin monocrotaline and the AA carmustine (BCNU), alone or in association with DF, were tested in vivo in an experimental model which used rats carrying mammary carcinoma 13762.
Table 1. […] The tumour was implanted on day 0 and the chemotherapy was administered on day 8 and day 18.

Data set [1] concerns mouse EMT-6 mammary carcinoma cells. As to the kind of experiment: Cytotoxicity of alkylating agents with and without DF in EMT-6 cells in culture.
For data set [2], the system named is Lewis pulmonary carcinoma. Kind of data set: Tumour growth and pulmonary metastases in mice carrying Lewis pulmonary carcinoma. It is filed as in vivo. The conditions noted are these: DF added to paclitaxel with or without carboplatin. The source says:
The mechanism underlying these effects remains to be explained, but it is possible that the anti-adhesive properties of DF are involved, given the role of cell adhesion in the mechanisms implicated in drug resistance (8, 9).

Another data set deals with MM-1S human MM cells. It is filed as in vivo. The conditions noted are these: for Tumor volume: P<0.05. The procedure:
It was also tested whether DF has in vivo activity in a murine model of human multiple myeloma (MM). Sixty male SCID/NOD mice (6-8 weeks old) were irradiated (450 rads) and, 24 hrs later, injected s.c. with 5×10^6 MM-1S human MM cells. Upon formation of palpable tumors, mice were randomly assigned to 6 cohorts (10 mice each) receiving a) vehicle; b) DF (i.v. 450 mg/kg b.i.d); c) melphalan (MEL) 2.5 mg/kg i.p. once weekly; d) cyclophosphamide (CTX) 50 mg/kg i.p., on days 8, 10, 12, 20, 22 and 24; e) and f) combinations of DF (300 mg/kg i.v.) with MEL or CTX, respectively. Mice were monitored q3 days for body weight, potential toxicity, and electronic caliper-based tumor volumes.
The major endpoints for efficacy were a) tumor volume changes and b) overall survival (time-to-sacrifice, performed when tumor diameters>2 cm).

For a further data set, the system named is MM cells. As to the kind of experiment: In vitro direct cytotoxicity against MM cells. It is filed as cell-based. The conditions noted are these: DF alone.
For a further data set, the system named is bovine endothelial cells. As to the kind of experiment: Cytotoxicity of alkylating agents with and without DF in bovine endothelial cells in culture. The settings on record: DF 50 μg/ml with alkylating agents. It is filed as cell-based.
Setting [3] is: monocrotaline or BCNU together with DF.
[4] abbreviates: versus cytotoxic therapy alone, data not presented.

Like-named read-outs stand apart in the source and are kept apart here.

From the text for bovine endothelial cells: In the following study, DF was examined in combination with antiblastic cytotoxic agents in a model of mouse EMT-6 mammary carcinoma cells and in bovine endothelial cells, in cell cultures and in an experimental model in which rats carrying tumours subjected to high doses of chemotherapy were used.

Consider `O=NN(CCCl)C(=O)NCCCl` [BCNU, carmustine], for which, in the data set with mammary carcinoma 13762, the “Days to reach 500 mm^3” value is reported as 18.0 ± 2.5 days and the “TGD” value is listed as 3.4 days.
`C[C@H]1C(=O)O[C@@H]2CCN3CC=C(COC(=O)[C@](C)(O)[C@]1(C)O)[C@H]23` [Monocrotaline, monocrotaline]: in the data set with mammary carcinoma 13762, the “Days to reach 500 mm^3” value worked out at 15.6 ± 1.0 days and the “TGD” value stood at 1.0 days.
As for defibrotide [DF], the “Tumour growth delay (TGD), in words” value in the data set with mammary carcinoma 13762 (DF alone versus control, p<0.05, repeat study) is given as “significant tumour growth delay”; with mammary carcinoma 13762 (DF associated with CTX and BCNU, p<0.04, greater than each agent alone, repeat study), “particularly significant”; in the data set with mammary carcinoma 13762 (setting [3]), “significant tumour growth delay”. Also, the “Additional toxicity in the animals” value in the data set with mammary carcinoma 13762 (setting [3]) is listed as “no additional toxicity”. Besides, in data set [1] (DF 50 μg/ml before and during, or during and after 4HC, 4HC 50-250 μmol), the “Increment in the killing of tumour cells by 4HC” value was determined as 2 logarithmic units. In data set [1] (DF before and during or during and after melphalan), the “Effect of DF on cytotoxicity of melphalan” value is “did not show any significant effect”. Further, the “Effect of DF on cytotoxicity of carboplatin” value in data set [1] (DF with carboplatin, compared with thiotepa result) is listed as “A similar result”. In addition, the Toxicity entry in data set [2] is “without showing an obvious increase in toxicity”. Besides, the “Number of pulmonary metastases” value in data set [2] (setting [4]) is “reduction”. In data set [2] (setting [4]), the “Tumour growth (TGD)” value is on record as “reduction in tumour growth”. The values for the Tumor volume result in the data set on MM-1S human MM cells (DF 300 mg/kg i.v. with MEL or CTX versus single-agent chemotherapy) and with MM-1S human MM cells (DF i.v. 450 mg/kg b.i.d versus control mice) were “significantly lower tumor volumes than the respective single-agent cytotoxic chemotherapy” and “significantly lower tumor volumes than in control mice”, respectively. For the same compound, the “Tolerability (hemorrhagic complications, body weight)” value in the data set on MM-1S human MM cells (DF single agent (i.v. 450 mg/kg b.i.d) or 300 mg/kg i.v. with MEL or CTX, P>0.05) is “well tolerated without hemorrhagic complications or body weight loss”. In addition, the “Overall survival (time-to-sacrifice), Kaplan-Meier” value in the data set with MM-1S human MM cells (DF single agent or with MEL or CTX, versus vehicle or MEL- or CTX-treated groups, P<0.001 log-rank) is on record as “statistically significant prolongation of overall survival”. Besides, in the data set with MM cells, the “Direct in vitro cytotoxic effect” value was “have not shown a significant direct in vitro cytotoxic effect”. The “Increase in cytotoxicity of AAs in association with DF” value with bovine endothelial cells was “no increase in cytotoxicity”.
